The text below walks through data of patent publication US12054447B2, “PCNA inhibitors” (City of Hope, priority 2015, dated 2024).

In data set [1] the test system is SK-N-DZ. Nature of the data set: Cell cycle analysis (PI, flow cytometry). Format: cell-based, human. As to conditions: NB cells (SK-N-DZ), 500 nM. The protocol:
Cells were seeded at 1×10^5/ml in a 6-well plate. Once attached overnight, cells were treated with or without AOH1160 for 6 or 24 h. After being fixed in 60% ethanol and stained with propidium iodide (PI), cells were analyzed by flow cytometry to determine the cellular PI fluorescence intensity. The flow cytometry data were analyzed by the FlowJo program to model various cell populations.

Data set [2] concerns γH2A.X in 7SM0032 cells. The data set is described as follows: Western blot. It is filed as cell-based, human. The settings on record: 500 nM. As to the method:
Cells were dissolved into the Laemmli sample buffer on the plate. The whole cell extracts were sonicated, and the proteins in the lysate were resolved using a 4-12% SDS polyacrylamide gel, and the resolved proteins were blotted onto a nitrocellulose membrane. Antibodies specific to H2A.X, cleaved caspase-3, full-length caspase-3, or cleaved caspase-9 were purchased from Cell Signaling Technology (Danvers, MA). The anti-γH2A.X antibody was purchased from Millipore. The membrane was blocked with 5% nonfat dry milk and incubated individually with each of these antibodies dissolved in the blocking buffer. After incubation with peroxidase-conjugated secondary antibodies, the protein of interest was detected using an ECL kit purchased from Thermo Fisher Scientific (Waltham, MA).

Data set [3] concerns SK-N-DZ. Nature of the data set: TUNEL assay / sub-G1 population (apoptosis). Format: cell-based, human. The settings on record: NB cells (SK-N-DZ), 500 nM, 24 h. As to the method:
(§1) To measure the effect of the compounds on cell growth, cells were seeded at 3×10^4/ml into a 96-well plate. Once attached, cells were treated with various concentrations of AOH1160 for 72 h. Cell growth was measured by the CellTitor-Glo assay (Promega, Madison, WI) according to the manufacturer's instructions. To measure apoptosis, cells were seeded at 1×10^5/ml onto a chamber slide. Once attached, cells were treated with the 500 nM AOH1160 for 24 h. Cells were fixed and analyzed by a TUNEL assay using the TMR red in situ cell death detection kit (Roche Diagnostics, Indianapolis, IN).

For data set [4], the system named is 7SM0032. The data set is described as follows: TUNEL assay (apoptosis). Format: cell-based, human. As to conditions: 7SM0032 cells, 500 nM, 24 h. The protocol:
as §1

For data set [5], the system named is HR-mediated DSB repair in DR-GFP cells. The data set is described as follows: DSB repair assay, DR-GFP reporter. Format: cell-based. As to conditions: I-SceI-induced DSB, GFP-positive cells by flow cytometry. The protocol:
The human NB cell lines, SK-N-DZ, SK-N-BE(2)c, SK-N-AS, and LAN-5 obtained from the American Type Culture Collection (Rockville, MD), were cultured in DMEM with 10% fetal bovine serum (FBS), 100 units/ml penicillin, and 100 μg/ml streptomycin in the presence of 5% CO2 at 37° C. Human PBMCs from a healthy donor were purchased from Sanguine BioSciences (Valencia, CA) and grown in RPMI1640 with 10% FBS, 100 units/ml penicillin, 100 μg/ml streptomycin, and 10 ng/ml IL-2 in the presence of 5% CO2 at 37° C. Human embryonic progenitor cell line 7SM0032 was acquired from Millipore (Billerica, MA) and grown in the hEPM-1 Media Kit purchased from the same company. The plasmid pCBASce expresses the rare cutting I-SceI meganuclease. The U20S-derived cell lines, DR-GFP and EJ5-GFP, each contain a stably transfected reporter gene for DSB repair mediated by HR and end joining (EJ), respectively. These cell lines were cultured in DMEM medium with 10% FBS at 37° C. in the presence of 5% CO2.
DR-GFP and EJ5-GFP cell lines were seeded at 2.5×10^4 cells/cm^2 in a 12-well plate. […] The HR and EJ-mediated DSB repair, indicated by the restoration of a functional GFP gene in the respective cell lines, were quantified by measuring the relative abundance of GFP-positive cells by flow cytometry 3 days after transfection.
(In flow cytometry, cells or beads pass a laser one at a time.)

Data set [6] has as its system SK-N-DZ. The data set is described as follows: Clonogenic assay with cisplatin. It is filed as cell-based, human. The settings on record: cisplatin with or without 500 nM AOH1160 for 18 h, 3 weeks. As to the method: Three hundred human SK-N-DZ NB cells were seeded onto a 60-mm tissue culture dish. Once attached overnight, cells were treated with or without various concentrations of cisplatin in the presence or absence of 500 nM of AOH1160 for 18 h. Cells were washed twice with growth medium and were cultured in fresh medium for 3 weeks to allow surviving cells to form colonies. The medium was changed every 3 days throughout the experiment. The colonies formed under each treatment conditions were counted after being stained with 0.5% crystal violet.

In data set [7] the test system is replication fork extension. The data set is described as follows: DNA fiber assay. Format: cell-based. The settings on record: CldU / IdU labeling before and after treatment. The protocol: FIGS. 3A-3B. […] Synchronized cells were sequentially incubated in the presence of CldU and IdU before and after AOH1160 treatment, respectively. Cells sequentially incubated with the same two nucleotide analogues but without AOH1160 were used as control. Images of FIG. 3A depict representative images of the labeled DNA strands from cells treated with or without AOH1160. FIG. 3B depicts the lengths of CldU (light gray) and IdU (dark gray) incorporated DNA segments measured from more than 30 independent DNA strands in cells treated with or without AOH1160 were averaged and graphed with standard deviations.

A short description of data set [8]: Pharmacokinetics (PK) of AOH1160 in animals. The settings on record: for AUC(0-inf) / Cmax / Tmax / half-life: rat, in vivo, po, 20 mg/kg, Rat PO 20 mg/kg. It is filed as in vivo, Rat.
The test system of data set [9] is MDA-MB-436 xenograft tumor. The data set is described as follows: Xenograft of a triple-negative breast cancer cell line in Es1e/SCID mice. Format: in vivo. As to conditions: 40 mg/kg once daily. As to the method:
FIGS. 10A-10B. Inhibition of the growth xenograft tumor derived from a triple-negative breast cancer cell line (MDA-MB-436). Mice bearing xenograft tumors were given vehicle only or 40 mg/kg of AOH1160 through the study. Shown are tumor volumes (FIG. 10A) and mouse body weights (FIG. 10B) in the course of the study. The Es1e/SCID mice used in this study were treated by vehicle only (diamond) or by 40 mg/kg AOH1160 (square) once daily.
Inhibition of the growth xenograft tumor derived from a triple-negative breast cancer cell line (MDA-MB-436). Mice bearing xenograft tumors were given vehicle only or 40 mg/kg of AOH1160 through the study. Shown are tumor volumes (FIG. 10A) and mouse body weights (FIG. 10B) in the course of the study. The Es1e/SCID mice used in this study were treated by vehicle only (diamond) or by 40 mg/kg AOH1160 (square) once daily.

With `O=C(CNC(=O)c1cccc2ccccc12)Nc1ccccc1Oc1ccccc1` [AOH1160], in data set [1], the cell cycle effect entry is on record as “causes cell cycle arrest”. Besides, the “intracellular γH2A.X level” value in data set [2] is reported as “Nor does it increase intracellular γH2A.X level”. The apoptosis entry in data set [3] was “apoptosis as indicated by the increase in the sub-G1 population (FIG. 2A) and TUNEL positivity”. Besides, in data set [4], the apoptosis entry is on record as “Nor does it increase intracellular γH2A.X level (FIG. 2B) or cause apoptosis”. Also, the “HR-mediated DSB repair” value in [5] is on record as “blocks DNA repair in DR-GFP”. Further, the “sensitivity to cisplatin (colony formation)” value in [6] is “more sensitive to cisplatin treatment in the presence of AOH1160 than in its absence”. The replication fork extension entry in data set [7] was “inhibition of replication fork extension”. For the same compound, the oral availability result in [8] (animals) is given as “orally available”. For the same compound, in [8] (BID dosing), the AUC(0-inf) (commonly the area under the concentration-time curve extrapolated to infinity) is 429 ± 195 ng·h/mL; the Cmax (in general, the highest concentration seen after dosing) worked out at 73 ± 23 ng/mL; the Tmax (as a rule, the time at which the peak concentration occurs) was 6 h; the half-life (usually the time in which the quantity being followed falls by half) was 4.3 ± 1.7 h. Moreover, in data set [8] (Single dosing), the area under the curve AUC(0-inf) was 383 ± 110 ng·h/mL, the highest level (Cmax) was 50 ± 31 ng/mL, the Tmax was found to be 3.3 ± 2.3 h and the half-life is 3.8 ± 31 h. Moreover, in data set [9], the weight loss result is listed as “caused no significant weight loss”. The “tumor growth (tumor volumes)” value in [9] (vs vehicle) is on record as “inhibited tumor growth”.
